Structures can show the parent of a compound that is named as a salt.
The compounds below were run on Human mast cells (CHMC) (assay: LD Tryptase release assay in CHMC (mast cell activation induced by FcγR cross-linking)). Conditions: Homo sapiens, Mast cell, anti-IgG stimulation, activity of tryptase released upon degranulation.
Assay type: cell-based
In short: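 Mast cells derived from CD38-negative progenitors were preincubated 1 h at 37 °C with compound in HEPES-buffered saline (pH 7.4, 0.1% BSA, compound diluted in buffer with 2% MeOH/1% DMSO). Cells were then stimulated 60 min with anti-human IgG (final 1 μg/mL). Released tryptase was measured on Z-Ala-Lys-Arg-AMC (30 min, room temperature, 355/460 nm) to give the IC50.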

Row | SMILES | IC50
1 | CC1(C)Oc2ccc(Nc3nc(Nc4ccc(NC5CCOCC5)nc4)ncc3F)nc2NC1=O [Compound 134] | < 100 nM
2 | CN(C[C@H]1CCCO1)c1ccc(Nc2ncc(F)c(Nc3ccc4c(n3)NC(=O)CO4)n2)cn1 [Compound 110, N4-(3,4-dihydro-3-oxo-2H-pyrido[3,2-b][1,4]oxazin-6-yl)-5-fluoro-N2-[6-(((R)-methyl(tetrahydrofuran-2-yl)methyl)amino)pyridin-3-yl]-2,4-pyrimidinediamine] | 1000 to 100000 nM
3 | CCOC[C@@H]1CN(c2ccc(Nc3ncc(F)c(Nc4ccc5c(n4)NC(=O)CO5)n3)cn2)CCO1 [Compound 100, N4-(3,4-dihydro-3-oxo-2H-pyrido[3,2-b][1,4]oxazin-6-yl)-N2-[6-(((2S)-2-ethoxymethyl)morpholino)pyridin-3-yl]-5-fluoro-2,4-pyrimidinediamine] | 100 to 500 nM
4 | CCOCC1COCCN1c1ccc(Nc2ncc(F)c(Nc3ccc4c(n3)NC(=O)C(C)(C)O4)n2)cn1 (stereo not shown) [Compound 59, N4-(2,2-dimethyl-3,4-dihydro-3-oxo-2H-pyrido[3,2-b][1,4]oxazin-6-yl)-5-fluoro-N2-[6-(3-(ethoxymethyl)morpholino)pyridin-3-yl]-2,4-pyrimidinediamine] | 100 to 500 nM
5 | Cc1cc(Nc2ncc(F)c(Nc3ccc4c(n3)NC(=O)CO4)n2)ccc1N1CCOCC1 [Compound 32] | < 100 nM
6 | CCOC[C@@H]1CN(c2ccc(Nc3ncc(F)c(Nc4ccc5c(n4)NC(=O)C(C)(C)O5)n3)cn2)CCO1 [Compound 101, N4-(2,2-dimethyl-3,4-dihydro-3-oxo-2H-pyrido[3,2-b][1,4]oxazin-6-yl)-N2-[6-(((2S)-2-ethoxymethyl)morpholino)pyridin-3-yl]-5-fluoro-2,4-pyrimidinediamine] | 100 to 500 nM
7 | CCN(CC)C1CCN(c2ccc(Nc3ncc(F)c(Nc4ccc5c(n4)NC(=O)C(C)(C)O5)n3)cn2)CC1 [Compound 61, N4-(2,2-dimethyl-3,4-dihydro-3-oxo-2H-pyrido[3,2-b][1,4]oxazin-6-yl)-5-fluoro-N2-[6-(4-(diethylamino)piperidin-1-yl)pyridin-3-yl]-2,4-pyrimidinediamine] | 100 to 500 nM
8 | COc1cc(Nc2ncc(F)c(Nc3ccc4c(n3)NC(=O)CO4)n2)ccc1N1CCOCC1 [Compound 33, N4-(3,4-dihydro-3-oxo-2H-pyrido[3,2-b][1,4]oxazin-6-yl)-5-fluoro-N2-[3-methoxy-4-morpholinophenyl]-2,4-pyrimidinediamine] | < 100 nM
9 | C[C@H]1CN(c2ccc(Nc3ncc(F)c(Nc4ccc5c(n4)NC(=O)C(C)(C)O5)n3)cn2)[C@@H](C)CO1 (racemic) [Compound 105, rac-N4-(2,2-dimethyl-3,4-dihydro-3-oxo-2H-pyrido[3,2-b][1,4]oxazin-6-yl)-5-N2-[6-(2,5-dimethylmorpholino)pyridin-3-yl]-5-fluoro-2,4-pyrimidinediamine] | 100 to 500 nM
10 | CC1(C)Oc2ccc(Nc3nc(Nc4ccc(N5CC[C@@H](F)C5)nc4)ncc3F)nc2NC1=O [Compound 136, (R)—N4-(2,2-dimethyl-3,4-dihydro-3-oxo-2H-pyrido[3,2-b][1,4]oxazin-6-yl)-5-fluoro-N2-[6-(3-fluoropyrrolidin-1-yl)pyrid-3-yl]-2,4-pyrimidinediamine] | < 100 nM
11 | CC1(C)Oc2ccc(Nc3nc(Nc4ccc(N5CCSCC5)cc4)ncc3F)nc2NC1=O [Compound 153, N4-(2,2-dimethyl-3,4-dihydro-3-oxo-2H-pyrido[3,2-b][1,4]oxazin-6-yl)-5-fluoro-N2-[4-thiomorpholinophenyl]-2,4-pyrimidinediamine] | 1000 to 100000 nM
12 | COC1CCN(c2ccc(Nc3ncc(F)c(Nc4ccc5c(n4)NC(=O)C(C)(C)O5)n3)cn2)C1 (stereo in doubt) [Compound 56, N4-(2,2-dimethyl-3,4-dihydro-3-oxo-2H-pyrido[3,2-b][1,4]oxazin-6-yl)-5-fluoro-N2-[6-((3R)-3-methoxypyrrolidin-1-yl)pyridin-3-yl]-2,4-pyrimidinediamine] | 100 to 500 nM

Same assay, conditions: anti-IgG stimulation, activity of tryptase released upon degranulation

Row | SMILES | IC50
13 | CC1(C)Oc2ccc(Nc3nc(Nc4ccc(N5CCOCC5)nc4)ncc3F)nc2NC1=O [Compound 142, N4-(2,2-dimethyl-3,4-dihydro-3-oxo-2H-pyrido[3,2-b][1,4]oxazin-6-yl)-5-fluoro-N2-[6-morpholinopyridin-3-yl]-2,4-pyrimidinediamine ethanesulfonic acid salt] | 100 to 500 nM

— patent US8618095B2 (Rigel Pharmaceuticals, Inc., priority 2010, dated 2013)
